Laboratory results reported in ChEMBL document CHEMBL1201862, “PubChem BioAssay data set” (2004).
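Cultured in 96-well plates, cells were exposed to test compound for 48 hours across five concentrations. At the GI50, growth is halved.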 Calls of active or inactive are those of the source. Rule as the data show it: active = GI50 up to about 1.1 µM and inactive = higher.

Columns and labels:
Experiment in all cases: DTP human tumour cell line panel, 48 h
786-0 = system: 786-0
A498 = system: A498
A549 = system: A549
ACHN = system: ACHN
BT-549 = system: BT-549
CAKI-1 = system: CAKI-1
CCRF-CEM = system: CCRF-CEM
COLO 205 = system: COLO 205
DLD-1 = system: DLD-1
DMS-114 = system: DMS-114
DMS-273 = system: DMS-273
DU-145 = system: DU-145
EKVX = system: EKVX
HCC 2998 = system: HCC 2998
HCT-116 = system: HCT-116
HCT-15 = system: HCT-15
HL-60 = system: HL-60
HOP-18 = system: HOP-18
HOP-92 = system: HOP-92
HT-29 = system: HT-29
Hs-578T = system: Hs-578T
IGROV-1 = system: IGROV-1
KM-20L2 = system: KM-20L2
KM12 = system: KM12
LOX IMVI = system: LOX IMVI
LXFL 529 = system: LXFL 529
M14 = system: M14
M19-MEL = system: M19-MEL
MCF7 = system: MCF7
MDA-MB-231 = system: MDA-MB-231
MDA-MB-435 = system: MDA-MB-435
MDA-N = system: MDA-N
MOLT-4 = system: MOLT-4
Malme-3M = system: Malme-3M
NCI-H226 = system: NCI-H226
NCI-H23 = system: NCI-H23
NCI-H460 = system: NCI-H460
NCI-H522 = system: NCI-H522
NCI/ADR-RES = system: NCI/ADR-RES
OVCAR-3 = system: OVCAR-3
OVCAR-4 = system: OVCAR-4
OVCAR-5 = system: OVCAR-5
OVCAR-8 = system: OVCAR-8
PC-3 = system: PC-3
RPMI-8226 = system: RPMI-8226
RXF 393 = system: RXF 393
RXF 631 = system: RXF 631
SF-268 = system: SF-268
SF-295 = system: SF-295
SF-539 = system: SF-539
SK-MEL-28 = system: SK-MEL-28
SK-MEL-2 = system: SK-MEL-2
SK-MEL-5 = system: SK-MEL-5
SK-OV-3 = system: SK-OV-3
SN12C = system: SN12C
SNB-19 = system: SNB-19
SNB-75 = system: SNB-75
SNB-78 = system: SNB-78
SR = system: SR
SW-620 = system: SW-620
T47D = system: T47D
TK-10 = system: TK-10
UACC-257 = system: UACC-257
UACC-62 = system: UACC-62
UO-31 = system: UO-31
XF498 = system: XF498

Measured: GI50

NCCNc1ccc(NCCN)c2c1C(=O)c1c(O)ccc(O)c1C2=O
161 nM: HCT-15
inactive: MDA-MB-435 1.15 µM | MDA-N 1.13 µM
active: 786-0 4.59 nM | A498 81.8 nM | A549 3.92 nM | ACHN 5.42 nM | BT-549 653 nM | CAKI-1 7.11 nM | CCRF-CEM 7.91 nM | COLO 205 1.08 µM | DLD-1 33.6 nM | DMS-114 < 1 nM | DMS-273 < 1 nM | DU-145 109 nM | EKVX 436 nM | HCC 2998 423 nM | HCT-116 51 nM | HL-60 40.7 nM | HOP-18 361 nM | HOP-92 6.86 nM | HT-29 65.9 nM | Hs-578T 148 nM | IGROV-1 87.3 nM | KM-20L2 18.1 nM | KM12 118 nM | LOX IMVI 7 nM | LXFL 529 8.07 nM | M14 14.9 nM | M19-MEL 19.7 nM | MCF7 7.31 nM | MDA-MB-231 681 nM | MOLT-4 < 1 nM | Malme-3M 67.1 nM | NCI-H226 1.8 nM | NCI-H23 7.28 nM | NCI-H460 < 1 nM | NCI-H522 32.4 nM | NCI/ADR-RES 192 nM | OVCAR-3 486 nM | OVCAR-4 207 nM | OVCAR-5 971 nM | OVCAR-8 15.8 nM | PC-3 205 nM | RPMI-8226 10.6 nM | RXF 393 71.9 nM | RXF 631 < 1 nM | SF-268 7.21 nM | SF-295 4.45 nM | SF-539 21.9 nM | SK-MEL-28 1.07 µM | SK-MEL-2 440 nM | SK-MEL-5 129 nM | SK-OV-3 26.6 nM | SN12C 4.83 nM | SNB-19 9.44 nM | SNB-75 16.2 nM | SNB-78 207 nM | SR < 1 nM | SW-620 24.6 nM | T47D 229 nM | TK-10 428 nM | UACC-257 1.06 µM | UACC-62 10.8 nM | UO-31 39.1 nM | XF498 < 1 nM
